Measurements taken from PubChem BioAssay (NCI).
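Five concentrations, 48 hours, 96-well plates. Abbreviation: GI50, concentration required for 50% inhibition of growth. TGI: concentration producing complete growth inhibition.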

Experiments:
Assay in all cases: inhibition of tumour cell growth, NCI panel, 48 h
BT-549 breast = tested on: BT-549 breast
MCF7 breast = tested on: MCF7 breast
RXF-631 renal = tested on: RXF-631 renal
DMS 273 small cell lung = tested on: DMS 273 small cell lung
M19-MEL melanoma = tested on: M19-MEL melanoma
XF 498 CNS = tested on: XF 498 CNS
LXFL 529 NSCLC = tested on: LXFL 529 NSCLC
HOP-18 NSCLC = tested on: HOP-18 NSCLC
MDA-N = tested on: MDA-N

Structure (SMILES)	GI50 (BT-549 breast)	TGI (BT-549 breast)	GI50 (MCF7 breast)	TGI (MCF7 breast)	TGI (DMS 273 small cell lung)	TGI (M19-MEL melanoma)	TGI (LXFL 529 NSCLC)	also measured
CCN(CC)CC(O)c1cc(-c2ccc(Cl)cc2)nc2cc(Cl)ccc12 (stereo not drawn)	4.75 µM	14.8 µM	1.5 µM	2.9 µM	–	–	–	–
CC(O)c1ccc(C(O)/C(=N\NC(=O)c2ccncc2)c2nc3ccc([N+](=O)[O-])cc3[nH]c2=O)cc1 (stereo not drawn)	–	–	–	–	> 100 µM	> 100 µM	> 100 µM	TGI (RXF-631 renal): > 100 µM; TGI (XF 498 CNS): > 100 µM
Cc1nc2cc(Nc3nc(Nc4ccc(F)cc4)nc(N4CCCC4)n3)ccc2n1Cc1ccccc1	1.88 µM	3.5 µM	2.22 µM	7.44 µM	–	–	–	–
COc1cccc(/C=C2\CCc3ccccc3C2=O)c1	20 µM	47.6 µM	3.53 µM	17.8 µM	–	–	–	–
Cn1c(=O)c(-c2c(Cl)cccc2Cl)cc2cnc(Nc3ccc(I)cc3)nc21	0.0389 µM	0.445 µM	0.212 µM	> 100 µM	–	–	–	–
O=C(CC1(O)C(=O)Nc2ccc([N+](=O)[O-])cc21)c1ccc(Br)cc1 (stereo not drawn)	–	–	–	–	–	69 µM	> 100 µM	TGI (HOP-18 NSCLC): > 100 µM; TGI (XF 498 CNS): > 100 µM
O=C(NCCCl)NCc1ccccc1	–	–	–	> 100 µM	–	–	–	TGI (MDA-N): > 100 µM
COc1ccc2c(c1)CC1N(C)CCC13CCCCC23 (stereo not drawn)	–	> 100 µM	–	> 100 µM	–	–	–	TGI (MDA-N): > 100 µM
c1ccc(N2N=NC3C4CC(C5c6ccccc6C45)C32)cc1 (stereo not drawn)	–	–	–	–	> 100 µM	46.7 µM	> 100 µM	TGI (RXF-631 renal): > 100 µM; TGI (XF 498 CNS): 38.5 µM
CN(CCCCN)c1ccc2c(=O)[nH][nH]c(=O)c2c1	–	–	–	–	> 100 µM	> 37 µM	> 100 µM	TGI (HOP-18 NSCLC): > 100 µM; TGI (XF 498 CNS): > 100 µM
CC(C)(N)C(=O)N[C@@H]1C(=O)N2[C@@H]1SC(C)(C)[C@@H]2C(=O)O	–	> 100 µM	–	> 100 µM	–	–	–	TGI (MDA-N): > 100 µM
Nc1nc(-c2ccc3ccccc3c2)cc(-c2cc(-c3ccc4ccccc4c3)nc(N)n2)n1	–	> 100 µM	–	> 100 µM	–	–	–	TGI (MDA-N): > 100 µM
NCCCCCCCCCn1c2c(c3ccccc3c1=O)C(=O)c1ccccc1-2	9.26 µM	18.9 µM	9.62 µM	26.1 µM	–	–	–	–
COc1cc2oc(-c3ccc(O)cc3)cc(=O)c2c(OC)c1O	–	> 100 µM	–	> 100 µM	–	–	–	TGI (MDA-N): > 100 µM
O=C(NC(Cc1ccccc1)C(=O)CCl)OCc1ccccc1 (stereo not drawn)	2.31 µM	6 µM	2.96 µM	13.5 µM	16.4 µM	27.3 µM	13.9 µM	TGI (HOP-18 NSCLC): 24 µM
O=C(O)c1ccccc1C1c2ccc(Cl)cc2Oc2cc(Cl)ccc21	–	–	–	–	> 100 µM	> 100 µM	> 100 µM	TGI (RXF-631 renal): > 100 µM; TGI (HOP-18 NSCLC): > 100 µM
CCOC(=O)Cn1c(=O)[nH]c(=O)c2[nH]cnc21	–	–	–	–	> 100 µM	> 100 µM	> 100 µM	TGI (RXF-631 renal): > 100 µM; TGI (HOP-18 NSCLC): > 100 µM

Structure (SMILES)	GI50 (BT-549 breast)	TGI (BT-549 breast)	GI50 (MCF7 breast)	TGI (MCF7 breast)	TGI (DMS 273 small cell lung)	TGI (M19-MEL melanoma)	TGI (LXFL 529 NSCLC)	also measured
COc1cc(OC)c(/C=C/C(=O)c2c(O)cc(OC)c(C3CCN(C)CC3)c2OC)c(OC)c1	1.43 µM	2.73 µM	–	–	–	–	–	–
COC(=O)[C@H](C)[C@@H]1CC[C@](C)(CCC2=C(C)CCCC2(C)C)OO1	–	> 25 µM	–	> 25 µM	–	–	–	TGI (MDA-N): > 25 µM
COC(=O)c1cc2c(nc1C)-c1ccccc1OS2(=O)=O	–	–	–	–	> 100 µM	> 100 µM	> 100 µM	TGI (RXF-631 renal): > 100 µM; TGI (XF 498 CNS): > 100 µM
c1cnc2nc3n(c2c1)CSC3	–	–	–	–	–	> 100 µM	> 100 µM	TGI (XF 498 CNS): > 100 µM
CC/C(=C(/CC)c1ccc(O)cc1)c1ccc(O)cc1	6.16 µM	21.5 µM	5.78 µM	19.3 µM	–	–	–	–
CC(C)=Cc1cc(C(=O)NCCNC(=O)c2cc(C=C(C)C)nc(NC#N)n2)nc(NC#N)n1	–	–	–	–	–	> 100 µM	> 100 µM	TGI (HOP-18 NSCLC): > 100 µM; TGI (XF 498 CNS): > 100 µM
[Au+].c1c[n-]cn1.c1ccc([PH+](c2ccccc2)c2ccccc2)cc1	3.29 µM	> 100 µM	–	–	> 44 µM	11.9 µM	2.95 µM	GI50 (MDA-N): 3.17 µM; TGI (MDA-N): 12.9 µM; GI50 (DMS 273 small cell lung): 7.87 µM; GI50 (HOP-18 NSCLC): 2.08 µM; TGI (HOP-18 NSCLC): 4.35 µM; GI50 (M19-MEL melanoma): 3.4 µM; GI50 (LXFL 529 NSCLC): 1.59 µM
Cc1cc(Cl)ccc1Nc1nc2c(s1)C(=O)c1ccccc1C2=O	–	2.9 µM	–	3.72 µM	5.71 µM	2.06 µM	12.8 µM	TGI (RXF-631 renal): 20.2 µM; TGI (HOP-18 NSCLC): 12.5 µM
Cc1ccc(S(=O)(=O)OC2CSSCC2OS(=O)(=O)c2ccc(C)cc2)cc1 (stereo not drawn)	–	–	–	–	21.8 µM	26.3 µM	23.6 µM	TGI (RXF-631 renal): 26.5 µM; TGI (HOP-18 NSCLC): 31.1 µM
C1=CC(=NN=P(c2ccccc2)(c2ccccc2)c2ccccc2)C=C1	–	–	–	–	> 100 µM	> 100 µM	> 100 µM	TGI (XF 498 CNS): > 100 µM
NC(CSC1(c2ccc(Cl)cc2)c2ccccc2-c2ccccc21)C(=O)O (stereo not drawn)	–	34.6 µM	–	39 µM	–	–	–	TGI (MDA-N): > 100 µM
O=[P+](O)c1cccnc1	–	–	–	–	> 100 µM	> 100 µM	> 100 µM	TGI (RXF-631 renal): > 100 µM; TGI (XF 498 CNS): > 100 µM
O=[N+]([O-])c1cccc([I+]c2ccccc2)c1	10.5 µM	23.1 µM	8.29 µM	41.5 µM	–	–	–	–
COC(=O)Cc1nn2c(nc1=O)sc1ccc3ccccc3c12	–	–	–	–	–	> 100 µM	> 100 µM	TGI (RXF-631 renal): > 100 µM; TGI (HOP-18 NSCLC): > 100 µM
Cn1cc(-c2ccc3nnc(C(F)(F)c4ccc5ncccc5c4)n3n2)cn1	86.8 µM	> 100 µM	69.4 µM	> 100 µM	–	–	–	–
ClCc1ccc(-c2ccc(Cn3cnc4c(Cl)ncnc43)cc2)cc1	3.11 µM	> 100 µM	1.1 µM	12.4 µM	–	–	–	–
O=C1Nc2c(ccc(Cl)c2Cl)/C1=C\c1cc(C(F)(F)F)cc(C(F)(F)F)c1	6.02 µM	12.5 µM	0.848 µM	5.64 µM	–	–	–	–
